In BigSolDB 2.1:

Cc1c([N+](=O)[O-])c(C)c([N+](=O)[O-])c(C(C)(C)C)c1[N+](=O)[O-]
solubility (mole fraction)
Conditions	in DMAc	in THF	in cyclohexane	in ethanol	in ethyl acetate	in isopropanol	in methanol	in n-butanol	in n-heptane	in n-hexane
278.15 K	0.0918	0.0786	0.00467	0.00168	0.0953	0.00128	0.00185	0.00245	0.00262	0.00225
283.15 K	0.112	0.0889	0.00588	0.00207	0.115	0.00165	0.00234	0.00308	0.00321	0.00284
288.15 K	0.134	0.1	0.00739	0.00254	0.136	0.00211	0.00295	0.00374	0.00402	0.00359
293.15 K	0.156	0.112	0.00925	0.00311	0.158	0.00269	0.00369	0.0045	0.00496	0.00437
298.15 K	0.179	0.126	0.0116	0.00378	0.182	0.00343	0.00459	0.00553	0.00609	0.00557
303.15 K	0.205	0.139	0.0145	0.00458	0.207	0.00437	0.00569	0.00666	0.00752	0.00685
308.15 K	0.232	0.156	0.0182	0.00552	0.233	0.00557	0.00704	0.00806	0.00931	0.00842
313.15 K	0.263	0.173	0.0229	0.00663	0.262	0.00713	0.00868	0.00974	0.0114	0.0104
